We go through 23 molecules from PubChem BioAssay AID588624 (NMMLSC, 2011).

Activity calls are given as the source filed them.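 How the source made its calls: active means half-maximal concentration at most 10 µM with response span of at least 30% and a trustworthy curve fit; inactive means the rest.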

The first test deals with Cell division control protein 42 homolog (Homo sapiens) (UniProt P60953). Briefly: inhibitors of activated Cdc42 GTP binding, SAR follow-up, selectivity assay for Rab7 inhibitor project, biochemical, activated mutant, bead multiplex, flow cytometry, round 2 (AID 588624). The settings on record: GST-Cdc42 act beads, Bodipy-GTP binding.
Sequence of Cell division control protein 42 homolog (Homo sapiens) (P60953 whole entry, looked up): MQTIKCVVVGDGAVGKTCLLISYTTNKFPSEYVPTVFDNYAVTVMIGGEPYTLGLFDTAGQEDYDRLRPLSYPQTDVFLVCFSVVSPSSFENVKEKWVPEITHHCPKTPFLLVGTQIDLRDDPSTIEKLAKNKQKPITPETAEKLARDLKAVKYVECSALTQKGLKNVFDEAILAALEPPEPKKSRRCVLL
For the molecule `CC1(C)Cc2c(sc(NC(=S)NC(=O)c3cccc(F)c3)c2C(=O)O)CO1`, the EC50 was 5830 nM.

Regarding `CC1(C)Cc2c(sc(NC(=S)NC(=O)c3ccccc3F)c2C(=O)O)CO1`, the EC50 was 2090 nM.

`O=C(NC(=S)Nc1sc2c(c1C(=O)O)CCOC2)c1ccccc1` yielded a 50% effective concentration (EC50) of 12500 nM.

On to `CC1Cc2c(sc(NC(=S)NC(=O)c3ccccc3)c2C(=O)O)CO1` (centres undefined), for which the concentration giving a half-maximal response (EC50) is 7980 nM.

Consider `CC1(C)Cc2c(sc(NC(=S)NC(=O)c3ccccc3Br)c2C(=O)O)CO1`, for which the EC50 was found to be 29500 nM.

Consider `CC1(C)Cc2c(sc(NC(=S)NC(=O)c3ccc(F)cc3)c2C(=O)O)CO1`, for which the 50% effective concentration (EC50) is 692 nM.

Take `CC(C)(C)C1Cc2c(sc(NC(=S)NC(=O)c3ccccc3)c2C(=O)O)CO1` (centres undefined): the 50% effective concentration (EC50) is 935 nM.

As to `CC1(C)Cc2c(sc(NC(=S)NC(=O)c3ccco3)c2C(=O)O)CO1`, the 50% effective concentration (EC50) is 326 nM.

On to `CCC1(C)Cc2c(sc(NC(=S)NC(=O)c3ccccc3)c2C(=O)O)CO1` (centres undefined), for which the half-maximal effective concentration (EC50) is 177 nM.

With `CC1(C)Cc2c(sc(NC(=S)NC(=O)C3CCCCC3)c2C(=O)O)CO1`, the half-maximal effective concentration (EC50) is 3130 nM.

`CC1(C)Cc2c(sc(NC(=S)NC(=O)c3ccc(Br)cc3)c2C(=O)O)CO1` displayed an EC50 of 32100 nM.

For `Cc1ccccc1C(=O)NC(=S)Nc1sc2c(c1C(=O)O)CC(C)(C)OC2`, the EC50 is 1350 nM.

Turning to `COc1cccc(C(=O)NC(=S)Nc2sc3c(c2C(=O)O)CC(C)(C)OC3)c1`, the concentration giving a half-maximal response (EC50) is 1310 nM.

With `CC1(C)Cc2c(sc(NC(=S)NC(=O)c3cccc(Br)c3)c2C(=O)O)CO1`, the 50% effective concentration (EC50) was 40600 nM.

The test is the same for the next values; noted with them: GST-Cdc42 act beads, Bodipy-GTP binding, at 100 µM (top of the series).
For the molecule `Cc1cccc(C(=O)NC(=S)Nc2sc3c(c2C(=O)O)CC(C)(C)OC3)c1`, the “percent response of GTP binding” value was “inactive”.

Consider `CC1(C)CCc2sc(NC(=S)NC(=O)c3ccccc3)c(C(=O)O)c2C1`, for which the “percent response of GTP binding” value was “inactive”.

In the case of `O=C(NC(=S)Nc1sc2c(c1C(=O)O)CCOC2)c1ccccc1`, the “percent response of GTP binding” value was “inactive”.

`O=C(NC(=S)Nc1sc2c(c1C(=O)O)CC1(CCCC1)OC2)c1ccccc1`: the “percent response of GTP binding” value is “inactive”.

`CC1(C)Cc2c(sc(NC(=S)NC(=O)c3cccs3)c2C(=O)O)CO1`: the “percent response of GTP binding” value is “inactive”.

Turning to `CC1(C)Cc2c(sc(NC(=O)NC(=O)c3ccccc3)c2C(=O)O)CO1`, the “percent response of GTP binding” value is “inactive”.

Turning to `COc1ccc(C(=O)NC(=S)Nc2sc3c(c2C(=O)O)CC(C)(C)OC3)cc1`, the “percent response of GTP binding” value is “inactive”.

Turning to `COc1ccccc1C(=O)NC(=S)Nc1sc2c(c1C(=O)O)CC(C)(C)OC2`, the “percent response of GTP binding” value was “inactive”.

Consider `CC1(C)Cc2c(sc(NC(=S)Nc3ccccc3)c2C(=O)O)CO1`, for which the “percent response of GTP binding” value was “inactive”.

For the molecule `Cc1ccc(C(=O)NC(=S)Nc2sc3c(c2C(=O)O)CC(C)(C)OC3)cc1`, the “percent response of GTP binding” value is “inactive”.
